Experimental data published in PubChem BioAssay AID2305 (GlaxoSmithKline (GSK), 2010).
“And” between values parts separate entries of the source, which are not always exact repeats. Equal entries are not always repeated.

Test system: P. falciparum 3D7 growth, pLDH absorbance
Experiment: blood-stage malaria parasite growth potency – strain 3D7, dose response (AID 2305)

SMILES	IC50
CCC(=O)Nc1ccc(C(O)CN2CCC3(C=Cc4ccccc4O3)CC2)cc1 (stereo not drawn)	1.2 µM
O=C(Cc1c(-c2ccccc2)[nH]c2ccccc12)NC1CCC(CN2CCC(c3c[nH]c4ccccc34)CC2)CC1 (stereo not drawn)	0.48 µM
COc1ccc(C2C(C(=O)Nc3ccc(C)cc3Br)c3ccccc3C(=O)N2C)cc1 (stereo not drawn)	0.94 µM
CCNc1cc(C(=O)N[C@@H](Cc2ccccc2)[C@H](O)CNC(C)Cc2cccc(Cl)c2)cc(N2CCCCS2(=O)=O)c1 (stereo partly drawn)	0.5 µM
CCCCCc1cnc2nc(N)nc(N)c2c1C	0.21 µM
CCC1(c2ccccc2)N=C(N)N(CCCc2ccccc2)C1=O (stereo not drawn)	0.89 µM
CNc1nc(NN=Cc2cc3c(cc2[N+](=O)[O-])OCO3)nc(Nc2cccc(C(F)(F)F)c2)n1	0.77 µM
O=C(/C=C/c1c(Cl)cccc1Cl)NC1CCC(CN2CCC(c3c[nH]c4ccccc34)CC2)CC1 (stereo not drawn)	0.37 µM and 0.81 µM
Cc1ccc(NC(=O)c2ccc(N3CCN(c4ccncc4)CC3)cc2)cc1F	0.74 µM
CNC(=O)c1cc(S(=O)(=O)N2CCN(c3ccccn3)CC2)c(C)s1	1.16 µM
CC(C)Oc1cc2c(cc1NS(=O)(=O)c1ccc(-c3ccc(Cl)cc3)cc1)CCN(C)CC2	1.04 µM
CN(C)CCCOc1cccc(CCNCc2cccc(Oc3ccc(Cl)cc3)c2)c1	1.01 µM
Cc1cc(N2CCCC2)nc(Nc2ccc(NC(=O)Nc3ccccc3)cc2)n1	0.16 µM
CC(=O)Nc1ccc(CN(Cc2cccc(OC(C)(C)C)c2)Cc2ccc3c(c2)OCCO3)cc1	0.14 µM
Cn1c(-c2ccccc2)cc2c3c(N)nc(N)nc3ccc21	0.89 µM
COc1ccc(Cc2nc(N=C(N)Nc3ccccc3)ccc2OC)cc1	0.85 µM
CCN1CCC(N(Cc2ccc(-c3ccc(C(F)(F)F)cc3)cc2)C(=O)CCCCn2c(CCc3cccc(F)c3F)nc(=O)c3ccccc32)CC1	0.99 µM
O=C(Nc1cccc(-c2ccc(CN3CCC(O)CC3)cc2)c1)c1cccc(Cl)c1	0.76 µM
CC(C)Sc1nc2c(c(=O)n1CCc1ccccc1)C1(CCCCC1)Cc1ccccc1-2	1.87 µM
O=C(Nc1cccc(-c2ccc(-c3nc4ccc(F)cc4[nH]3)cc2)c1)c1ccncc1	0.28 µM
Cc1ccccc1C1CCN(c2ccc(C(=O)Nc3ccc(F)cc3)cn2)CC1	0.19 µM
C=CCc1cc(Cc2cnc(N)nc2N)c2ccc(C)nc2c1O	1.04 µM
CC(=O)N(C)c1cccc(CNc2cc(C)nc(Nc3ccc(C)cc3)n2)c1	1 µM
CC(C)Cn1c(Sc2ccc(C#N)c([N+](=O)[O-])c2)nnc1-c1cccs1	1.08 µM
COc1ccc(CNCc2cccc(-c3ccc(-c4nc5c(C)cccc5[nH]4)cc3)c2)cc1	0.24 µM

SMILES	IC50
CN(CCN)Cc1cccc(-c2cccc(-c3nc4ccc(C(F)(F)F)cc4[nH]3)c2)c1	0.51 µM
CN1CCC(NC(=O)c2cc(Oc3ccc4c(c3)CCN4C(=O)Nc3cccc(C(F)(F)F)c3)ccn2)CC1	0.93 µM
CC(C)(C)OC(=O)NCc1ccc(Nc2nnc(-c3ccc(OCC(=O)NCc4ccc(C(C)(C)C)cc4)c([N+](=O)[O-])c3)o2)cc1	0.8 µM
Cc1ccccc1C1CCN(C2CCC(NC(=O)C3=Cc4ccccc4OC3)CC2)CC1 (stereo not drawn)	0.93 µM
Cc1[nH]c(C)c(-c2ccc(OCCn3cnc(Cl)c3Cl)cc2)c(=O)c1Br	0.85 µM
COc1ccc(N2C(N)=NC(N)=NC2(C)C)cc1OC	0.31 µM
Cc1cccc2[nH]c(-c3cccc(-c4cccc(NC(=O)c5ccc(C(N)=O)cc5)c4)c3)nc12	0.32 µM
NC1=NC2(CCCCC2)N(OCCCCCCN2C(=O)c3ccccc3C2=O)C(N)=N1	0.87 µM
CCOC(=O)c1ccc(NC(=O)Nc2cccc(-c3ccc(-c4nc5ccc(C(F)(F)F)cc5[nH]4)cc3)c2)cc1	0.21 µM
Cc1cc(NC(=O)[C@@H](Nc2ccc(C#N)c3ccccc23)C2CCCCC2)ccc1F	0.89 µM
COC(=O)c1ccc(CC(C)NCC(O)c2cc(Cl)c(N)c(Cl)c2)cc1 (stereo not drawn)	0.88 µM
Cn1c(Cc2ccccc2)nnc1Sc1ccc(C#N)c([N+](=O)[O-])c1	0.91 µM
CCCc1cc(=O)[nH]c(-n2nc(C)cc2NC(=O)CC(c2ccccc2)c2ccccc2)n1	0.62 µM
Cc1[nH]c(C)c(-c2ccc(OCc3cccc(C(F)(F)F)c3)nc2)c(=O)c1Br	0.04 µM
COc1ccc2nc(C)cc(NN=Cc3ccc([N+](=O)[O-])cc3)c2c1	0.69 µM
COc1cc2nc(NCCc3ccccc3)nc(NCCc3ccccc3)c2cc1OC	0.28 µM
O=c1c2ccc(F)cc2sn1-c1ccc(Cl)cc1	1.15 µM
O=C(NCCc1ccc(Cl)c(Cl)c1)c1ccc(CNC(=O)c2ccc(O)c(-c3ccc(Cl)c(Cl)c3)c2)cc1	0.81 µM
CN1CCN(c2ccnc3ccc(NC(=O)Nc4ccc(Cl)cc4)cc23)CC1	0.11 µM
COc1ccc(C=NNc2c3ccccc3nc3ccccc23)c2ccccc12	1.13 µM
Cc1ccc(-n2c(=O)c3cccnc3n2CC(=O)Nc2cccc(C)c2C)cc1	0.86 µM
CCCc1cc(=O)[nH]c(-n2nc(C)cc2NC(=O)C(CC)c2ccccc2)n1 (stereo not drawn)	0.94 µM
Cc1cc(Nc2ncc(Cl)c(Nc3ccccc3C(N)=O)n2)n[nH]1	0.81 µM
C#CCOc1ccc(N2C(N)=NC(N)=NC2(C)C)cc1	0.07 µM
CCCCN(CCCC)C(=NCCCCCCN=C(/N=C(/N)Nc1ccc(Cl)cc1)N(CCCC)CCCC)/N=C(/N)Nc1ccc(Cl)cc1	0.79 µM

SMILES	IC50
CC(=O)c1cccc(NC(=O)NC2CCN(CCCCCNC(=O)/C=C/c3ccc(Cl)c(Cl)c3)CC2)c1	0.84 µM
Oc1cc2c(cc1CN1CCN(Cc3ccc(Cl)s3)CC1)CCC2	0.62 µM
Cc1cc(N[C@@H](Cc2ccccc2)C(=O)NCCOc2ccccc2)nc(NCc2ccccc2C)n1	0.71 µM
CC(C)Cc1ccc(N2CCN(CCCCNC(=O)c3ccc(NC(=O)c4ccc(Cl)c(Cl)c4)cc3)CC2)cc1	1.2 µM
Cc1cccc(CNc2nccc3[nH]c4ccccc4c23)c1	1.9 µM
CCCCc1ccc(S(=O)(=O)Nc2ccc3c(c2)CCN(Cc2c[nH]c4cnccc24)CC3)cc1	0.67 µM
COC(=O)c1ccc(C(=O)NCCCCN2CCC(c3ccc4c(c3OC)CCCC4)CC2)cc1-c1ccc(C(F)(F)F)cc1	1.15 µM
O=C(NCCN1CCC(NC(=O)c2ccc(-c3ccccn3)s2)CC1)c1ccc(Cl)c(Cl)c1	0.88 µM
Cc1ccccc1C1CCN(C2CCC(NC(=O)/C=C/c3cccc(F)c3F)CC2)CC1 (stereo not drawn)	1.15 µM
CS(=O)(=O)CCNCc1nc(-c2ccc3c(Nc4ccc(Cl)cc4F)ccnc3c2)cs1	1.08 µM
CC(Cc1ccc(NC(=O)c2ccc(NCCc3ccccc3)cc2)cc1)NCCc1cccc(Cl)c1 (stereo not drawn)	0.85 µM
COc1ccc(C(=O)Nc2ccc3nc(N4CCCCC4)cc(C)c3c2)cc1[N+](=O)[O-]	0.78 µM
CCN(CCN(C)C)Cc1ccc(-c2ccc(NS(=O)(=O)c3cccc4cccnc34)cc2)cc1	0.93 µM
Cc1cccc2[nH]c(-c3ccc(-c4ccc(NC(=O)Nc5ccsc5)cc4)cc3)nc12	0.17 µM
O=C(NC1CCN(Cc2ccccc2)CC1)c1ccc2c(=O)n(Cc3ccc(Cl)cc3)c(=S)[nH]c2c1	1 µM
c1ccc(Nc2nc(-c3ccccn3)cs2)nc1	1.15 µM
C[C@@H]1CN(c2ccnc3ccc(Sc4ccc(Oc5ccccc5)cc4)cc23)C[C@H](C)N1	0.78 µM
c1ccc2c(CNCCCN3CCN(CCCNCc4c5ccccc5cc5ccccc45)CC3)c3ccccc3cc2c1	0.18 µM
COc1ccc(C2CCN(CCCCNC(=O)c3ccc(NC(=O)c4ccc(Cl)cc4)cc3)C2)c(OC)c1 (stereo not drawn)	1.2 µM
CC(C)(CNC(=O)C1CCN(CCOc2ccc(Cl)cc2)CC1)c1nc(-c2ccc(Cl)c(O)c2)c(-c2ccncc2)[nH]1	0.71 µM
Clc1ccc(OCCC2CCN(CCCCCCCN3CCC(CCOc4ccc(Cl)c(Cl)c4)CC3)CC2)cc1Cl	0.62 µM
Cc1cc(Cl)ccc1NC(=O)NCCCCCN1CCC(c2c[nH]c3ccccc23)CC1	1.01 µM
NCC1CCCN1Cc1ccc(-c2cccc(-c3nc4ccc(F)cc4[nH]3)c2)cc1 (stereo not drawn)	0.75 µM
Cc1cc(-c2ccc3c(c2)CC[C@@H](N[C@@H](C)c2ccccc2)C3)cnc1N	1.73 µM
CCOc1ccccc1N1CCN(CCCNC(=O)/C(=C/C=C/c2cc3cc(Cl)c(Cl)cc3[nH]2)OC)CC1	0.85 µM

SMILES	IC50
CC(C)C[C@H](NC(=O)c1ccc(OCCN2CCOCC2)cc1)C(=O)N[C@H](/C=N/N1CC(=O)NC1=O)CCc1ccccc1	0.28 µM
COc1ccccc1NS(=O)(=O)c1cc(C(=O)Nc2ccc(N3CCOCC3)c(S(=O)(=O)Nc3ccccc3Cl)c2)ccc1Cl	0.83 µM
CCOc1ccc(C(=O)Nc2nonc2-c2ccc(OC)c(OC)c2)cc1	0.87 µM
CCCCCCNc1c2ccccc2nc2ccccc12	0.95 µM
O=C(Cc1cccc(Cl)c1)N1CCc2cc3nccc(N4CCN5CCC[C@H]5C4)c3cc21	0.85 µM
CC(C)CNCc1cccc(-c2ccc(CN(C(=O)Nc3ccccc3)C3CCN(Cc4ccccc4)CC3)cc2)c1	0.48 µM
FC(F)(F)c1ccc(/C=C/c2cncnc2Nc2ccc3nc(Cc4ccccc4)[nH]c3c2)cc1	0.61 µM
CCCc1cc(NCC)nc(Nc2ccc(C)cc2)n1	0.89 µM
CC1(C)OC[C@]2(C)[C@@H](CC[C@]3(C)C4=CC(=O)CCC4CC[C@@H]23)O1 (stereo partly drawn)	0.28 µM
CN(c1cc(NC(=O)c2ccc(F)cc2)ccn1)C1CCN(Cc2cccc(F)c2)CC1	0.49 µM
COc1ccc(CCNc2nc(NCCc3cnc[nH]3)nc(NCc3cccc4ccccc34)n2)cc1OC	0.54 µM
Cc1cc(NN=Cc2ccccc2Cl)c2ccccc2n1	0.9 µM
Fc1ccc2nc(-c3cccc(-c4cccc(CNCCc5ccncc5)c4)c3)[nH]c2c1	0.17 µM
CC(C)N1CCC(Oc2ccc(CN3CCN(C(c4ccccc4)c4ccc(Cl)cc4)CC3)cc2)CC1 (stereo not drawn)	0.94 µM
CCn1c(O)c(N=NC(=S)N2CCCC2)c2ccccc21	1 µM
Cc1cc(Nc2cccc(C(F)(F)F)c2)nc(N)n1	0.79 µM
COc1cccc(C(=O)[C@H]2C[C@@H]2CN(C)CC(O)c2cc(C)c(OC)cc2C)c1 (stereo partly drawn)	1.14 µM
CN(CCN)Cc1ccc(-c2ccc(-c3nc4ccc(C(F)(F)F)cc4[nH]3)s2)cc1	0.61 µM
COCCOc1ccc(C(F)(F)F)cc1NC(=O)Cc1c(F)cccc1Cl	1 µM
CO/C(=C\C=C\c1cc2cc(Cl)c(Cl)cc2[nH]1)C(=O)NCCCN1CCN(Cc2ccccc2)CC1	0.91 µM
O=C(NC1CCCCC1)C(c1cccs1)N(CCc1ccccc1)C(=O)c1ccco1 (stereo not drawn)	1.04 µM
COc1ccc2nccc([C@@H](O)CN3CCC(NCCOc4ccccc4[N+](=O)[O-])CC3)c2c1	0.38 µM
Cc1cc(C)c(NC(=O)N2CCCN(CCCCCNC(=O)/C=C/c3ccc(Cl)c(Cl)c3)CC2)c(C)c1	0.97 µM
